From patent publication US9481712B2, “Peptidomimetics possessing photo-controlled biological activity” (priority 2013, dated 2016)
Converted amounts (≈) assume the structure as drawn. *1 amine or outer side, *2 acyl side, *3 side chain or, on linkers, in order; H or OH if unused. Where a SMILES comes first, the peptide text is derived from it. Bridges are numbered along the chain shown (N, C = ends). [ ]: non-standard residue; d: D form. X2 = CC12SC(C(=O)NN[*:2])=CC1=C1CCCC1=C1C=C(C(=O)[*:1])SC12C; X1 = Cc1sc(C(=O)NN[*:2])cc1C1=C(c2cc(C(=O)[*:1])sc2C)CCC1; Orn = NCCC[C@H](N)C(=O)O

Tests used:
[1] = test system: Escherichia coli DSM 1103; assay type: cell-based
Experimental: (§1) The antimicrobial activities of GS and its analogues were measured using broth microdilution assay using a standard protocol [Daniel Amsterdam (1996). Susceptibility testing of antimicrobials in liquid media. In: Antibiotics in laboratory medicine, Loman, V., ed., 4th ed. Williams and Wilkins, Baltimore, Md., pp. 52-111]. The peptidomimetic compounds were tested against bacteria strains Escherichia coli DSM 1103, Staphylococcus aureus DSM 1104, Staphylococcus epidermidis DSM 1708, and Staphylococcus xylosus DSM 20267. GS analogues in the “closed” form were prepared in advance by RP-HPLC and stored protecting them from light. The corresponding minimal inhibitory concentrations (MIC) are listed in Table 2, where a small MIC value indicates a high antimicrobial activity, and vice versa.

[2] = test system: Staphylococcus aureus DSM 1104; assay type: cell-based
Experimental: as §1

[3] = test system: Staphylococcus epidermidis DSM 1708; assay type: cell-based
Experimental: as §1

[4] = test system: Staphylococcus xylosus DSM 20267; assay type: cell-based
Experimental: as §1

erythrocytes = assay type: cell-based, human; settings: pH 7.6
Experimental: To test the hemolytic activities of GS and its analogues, conserved human blood samples were obtained from Karlsruhe municipal hospital and washed four times in Tris buffer, pH 7.6, at 4° C. Aliquots of the blood cells were incubated with different concentrations of the peptide/peptidomimetics for 30 min at 37° C. and subsequently centrifuged. The absorption of the supernatant at 540 nm gives the extent of hemolysis, relative to 0% as taken from the peptide-free control and 100% after treatment with Triton X-100 (not to interfere with this analysis, the samples with GS analogues in the “closed” form were back-converted to their “open” forms by 30 min exposure to the visible light). The HC50 values, where 50% of the erythrocytes were lysed, were determined from the concentration dependent curves and are listed in Table 3. Small HC50 values indicate a high hemolytic activity, and vice versa. […] This proves by several independent assays that the biological activities of the photo-switchable GS analogues could be controlled by light.

[5] = photo-conversion from "closed" to "open" form by visible light (RP-HPLC); assay type: physicochemical
Experimental: The reverse photo-conversion of the peptidomimetic GS-Sw(FP) from the “closed” to the “open” form by visible light was also tested. A solution of peptide in the pink-colored “closed”-form (in a water-acetonitrile mixture, 3:1, 100 μg/ml) was used. The conversion of the peptidomimetic from the “closed”-form to the “open”-form was determined by RP-HPLC (analytical C18 column, linear A:B gradient of 4% B/min, 1.5 ml/min flow rate) after 0.25, 1.5, 5.5, 7.5 min of irradiation by visible light. A bright halogen lamp (250 Watts) was used, and the solutions were placed in 10 cm distance from the light source. The obtained data fitted well to the exponential equation y=[…], where y is a conversion of “closed” form into the “open” form, t is the time of the illumination and r is the half-conversion time. […] The conversion from “closed” to “open” could be achieved to 100%.

Staphylococcus xylosus = assay: photo-activation on bacterial lawn (FIG. 5); assay type: cell-based; settings: 6 or 8 μg/ml "closed" form converted 60% or 80% by visible light; 37° C. for 18 hours
Source text: The compound was applied to the bacterial lawn at different concentrations and then irradiated by visible light. Some geometrical shapes were cut out from a paper covering the entire Petri dish, such that the photo-switchable compound was converted into the “open” form only in those small areas exposed to the light. […] One further experiment aimed at finding these optimal conditions for treatment with the peptidomimetic GS-SwFP is illustrated in FIG. 5.

[6] = 250 W halogen lamp, 10 cm, water-acetonitrile 3:1, 100 μg/ml, from exponential fit

Row | Structure (SMILES) | minimal inhibitory concentration (MIC) [1] [µg/mL] | minimal inhibitory concentration (MIC) [2] [µg/mL] | minimal inhibitory concentration (MIC) [3] [µg/mL] | minimal inhibitory concentration (MIC) [4] [µg/mL] | H50 (50% of hemolysis) (erythrocytes) | achievable conversion from "closed" to "open" [5] [%] | time of illumination to achieve 60% transformation "closed" to "open" [5, 6] [min] | time of illumination to achieve 80% conversion "closed" to "open" [5, 6] [min] | antimicrobial effect on bacterial lawn after activation to "open" form (Staphylococcus xylosus)
1 | Cc1sc2cc1C1=C(CCC1)c1cc(sc1C)C(=O)N[C@@H](C(C)C)C(=O)N[C@@H](CCCN)C(=O)N[C@@H](CC(C)C)C(=O)N[C@H](Cc1ccccc1)C(=O)N1CCC[C@H]1C(=O)N[C@@H](C(C)C)C(=O)N[C@@H](CCCN)C(=O)N[C@@H](CC(C)C)C(=O)NNC2=O [GS-Sw(FP), “open”, cyclo(^DFPVOL-1b-VOL)] | 128 (≈ 103 µM) | 4 (≈ 3.22 µM) | 8 (≈ 6.44 µM) | 8 (≈ 6.44 µM) | 6.5 µg/mL |  |  |  | 
2 | Cc1sc2cc1C1=C(CCC1)c1cc(sc1C)C(=O)N[C@@H](CCCN)C(=O)N[C@@H](CC(C)C)C(=O)N[C@H](Cc1ccccc1)C(=O)N1CCC[C@H]1C(=O)N[C@@H](C(C)C)C(=O)N[C@@H](CCCN)C(=O)N[C@@H](CC(C)C)C(=O)N[C@H](Cc1ccccc1)C(=O)NNC2=O [GS-Sw(PV), “open”, cyclo(^DFPVOL^DF-1b-OL)] ([Orn]L[dF]PV[Orn]L[dF]; linker N-C via X1) | >128 | 4 (≈ 3.1 µM) | 4 (≈ 3.1 µM) | 4 (≈ 3.1 µM) | 6 µg/mL |  |  |  | 
3 | CC(C)C[C@@H]1NC(=O)[C@H](CCCN)NC(=O)[C@H](C(C)C)NC(=O)[C@@H]2CCCN2C(=O)[C@@H](Cc2ccccc2)NC(=O)[C@H](CC(C)C)NC(=O)[C@H](CCCN)NC(=O)[C@H](C(C)C)NC(=O)C2=CC3=C4CCCC4=C4C=C(SC4(C)C3(C)S2)C(=O)NNC1=O (stereo partly drawn) [GS-Sw(FP), “closed”, cyclo(^DFPVOL-1b-VOL)] | >128 | 32 (≈ 25.8 µM) | 64 (≈ 51.5 µM) | 32 (≈ 25.8 µM) | 72 µg/mL |  |  |  | 
4 | Cc1sc2cc1C1=C(CCC1)c1cc(sc1C)C(=O)N1CCC[C@H]1C(=O)N[C@@H](C(C)C)C(=O)N[C@@H](CCCN)C(=O)N[C@@H](CC(C)C)C(=O)N[C@H](Cc1ccccc1)C(=O)N1CCC[C@H]1C(=O)N[C@@H](C(C)C)C(=O)N[C@@H](CCCN)C(=O)NNC2=O [GS-Sw(LF), “open”, cyclo(^DFPVO-1b-PVOL)] (PV[Orn]L[dF]PV[Orn]; linker N-C via X1) | >128 | 8 (≈ 6.53 µM) | 16 (≈ 13.1 µM) | 8 (≈ 6.53 µM) | 47 µg/mL |  |  |  | 
5 | Cc1sc2cc1C1=C(CCC1)c1cc(sc1C)C(=O)N[C@@H](C(C)C)C(=O)N[C@@H](CCCN)C(=O)N[C@@H](CC(C)C)C(=O)N[C@H](Cc1ccccc1)C(=O)N1CCC[C@H]1C(=O)N[C@@H](C(C)C)C(=O)N[C@@H](CCCN)C(=O)N[C@@H](CC(C)C)C(=O)NNC2=O [GS-Sw(FP), cyclo(^DFPVOL-1b-VOL)] |  |  |  |  |  | 100 | 7.5 | 12.5 | pronounced antimicrobial activity
6 | CC(C)C[C@@H]1NC(=O)[C@H](CCCN)NC(=O)[C@H](C(C)C)NC(=O)[C@@H]2CCCN2C(=O)C2=CC3=C4CCCC4=C4C=C(SC4(C)C3(C)S2)C(=O)NNC(=O)[C@H](CCCN)NC(=O)[C@H](C(C)C)NC(=O)[C@@H]2CCCN2C(=O)[C@@H](Cc2ccccc2)NC1=O (stereo partly drawn) [GS-Sw(LF), “closed”, cyclo(^DFPVO-1b-PVOL)] (PV[Orn]L[dF]PV[Orn]; linker N-C via X2) | 64 (≈ 52.2 µM) | 128 (≈ 104 µM) | 128 (≈ 104 µM) | 128 (≈ 104 µM) | >>128 μg/ml |  |  |  | 
7 | CC(C)C[C@@H]1NC(=O)[C@H](CCCN)NC(=O)[C@H](C(C)C)NC(=O)[C@@H]2CCCN2C(=O)[C@@H](Cc2ccccc2)NC(=O)[C@H](CC(C)C)NC(=O)[C@H](CCCN)NC(=O)[C@H](C(C)C)NC(=O)[C@@H]2CCCN2C(=O)[C@@H](Cc2ccccc2)NC1=O [GS, [PVOL^DFPVOL^DF]cyclo, reference compound] (cyclo(L[dF]PV[Orn]L[dF]PV[Orn])) | 8 (≈ 7.01 µM) | 2 (≈ 1.75 µM) | 2 (≈ 1.75 µM) | 1 (≈ 0.876 µM) | 12 µg/mL |  |  |  | 
8 | CC(C)C[C@@H]1NC(=O)[C@H](CCCN)NC(=O)[C@H](C(C)C)NC(=O)[C@@H]2CCCN2C(=O)[C@@H](Cc2ccccc2)NC(=O)[C@H](CC(C)C)NC(=O)[C@H](CCCN)NC(=O)C2=CC3=C4CCCC4=C4C=C(SC4(C)C3(C)S2)C(=O)NNC(=O)[C@@H](Cc2ccccc2)NC1=O (stereo partly drawn) [GS-Sw(PV), “closed”, cyclo(^DFPVOL^DF-1b-OL)] ([Orn]L[dF]PV[Orn]L[dF]; linker N-C via X2) | >128 | 16 (≈ 12.4 µM) | 32 (≈ 24.8 µM) | 32 (≈ 24.8 µM) | 58 µg/mL |  |  |  | 
